Source: ChEMBL document CHEMBL5257097, “An Isomer of Galidesivir That Potently Inhibits Influenza Viruses and Members of the Bunyavirales Order” (ACS Med Chem Lett, 2023)

Key:
Influenza A virus [1] = test: Antiviral activity against Influenza A virus H7N9 infected in dog MDCK cells assessed as inhibition of viral replication measured after 15 to 30 mins by visual analysis; format: functional, organism-based
Influenza A virus [2] = test: Antiviral activity against Influenza A virus H7N9 infected in dog MDCK cells assessed as inhibition of viral replication measured after 15 to 30 mins by neutral red dye based analysis; format: functional, organism-based
[3] = Cytotoxicity against dog MDCK cells infected with Influenza A virus H3N2 assessed as reduction in cell viability by visual analysis; format: toxicity, cell-based, Canis lupus familiaris
[4] = Cytotoxicity against dog MDCK cells infected with Influenza B virus assessed as reduction in cell viability by visual analysis; format: toxicity, cell-based, Canis lupus familiaris
[5] = (§1) Selectivity index, ratio of CC50 for cytotoxicity against dog MDCK cells infected with Influenza A virus H1N1 assessed as reduction in cell viability by visual analysis to EC50 for antiviral activity against Influenza A virus H1N1 infected in dog MDCK cells assessed as inhibition of viral replication by visual analysis; format: toxicity, cell-based; conditions: read-out: Ratio CC50/EC50
[6] = as §1, with “B” for “A”, “virus” for “virus H1N1”; format: toxicity, cell-based; conditions: read-out: Ratio CC50/EC50
[7] = Selectivity index, ratio of CC50 for cytotoxicity against dog MDCK cells infected with Influenza B virus assessed as reduction in cell viability by neutral dye based analysis to EC50 for antiviral activity against Influenza B virus infected in dog MDCK cells assessed as inhibition of viral replication by neutral red dye based analysis; format: toxicity; conditions: read-out: Ratio CC50/EC50
[8] = as §1, with “H3N2” for “H1N1”, “EC90” for “EC50”, “reduction in” for “inhibition of”, “yield” for “replication”; format: toxicity, cell-based
La Crosse virus = test: Antiviral activity against La Crosse virus infected in African green monkey Vero E6 cells assessed as inhibition of viral replication by visual analysis; format: functional, organism-based; conditions: Vero C1008
Oropouche virus = test: Antiviral activity against Oropouche virus infected in African green monkey Vero E6 cells assessed as inhibition of viral replication by visual analysis; format: functional, organism-based; conditions: Vero C1008
Pichinde virus = test: Antiviral activity against Pichinde virus infected in African green monkey Vero cells assessed as inhibition of viral replication by visual analysis; format: functional, organism-based
Tacaribe virus = test: Antiviral activity against Tacaribe virus infected in African green monkey Vero cells assessed as inhibition of viral replication by neutral red dye based analysis; format: functional, organism-based; conditions: Mammarenavirus tacaribeense
Rift Valley fever virus = test: Antiviral activity against Rift Valley fever virus infected in African green monkey Vero 76 cells assessed as reduction in viral yield measured for 3 days; format: functional; conditions: Vero 76, 72 h, time 3 day
Heartland virus = test: Antiviral activity against Heartland virus infected in African green monkey Vero E6 cells assessed as reduction in viral yield measured for 3 days; format: functional; conditions: Vero C1008, 72 h, time 3 day
[9] = Cytotoxicity against African green monkey Vero E6 cells infected with Rift Valley fever virus assessed as reduction in cell viability; format: toxicity, cell-based, Vero C1008; conditions: chlorocebus sabaeus
[10] = Cytotoxicity against African green monkey Vero E6 cells infected with JUNV assessed as reduction in cell viability by neutral red dye based analysis; format: toxicity, Vero C1008; conditions: chlorocebus sabaeus
[11] = Cytotoxicity against African green monkey Vero E6 cells infected with Oropouche virus assessed as reduction in cell viability by visual analysis; format: toxicity, cell-based, Vero C1008; conditions: chlorocebus sabaeus
[12] = Cytotoxicity against African green monkey Vero E6 cells infected with Severe fever with thrombocytopenia syndrome virus assessed as reduction in cell viability; format: toxicity, cell-based, Vero C1008; conditions: chlorocebus sabaeus
[13] = Selectivity index, ratio of CC50 for cytotoxicity against African green monkey Vero E6 cells infected with Maporal virus assessed as reduction in cell viability to EC90 for antiviral activity against Maporal virus infected in African green monkey Vero E6 cells assessed as reduction in viral yield; format: toxicity, cell-based, Vero C1008
Marburgvirus = test: Antiviral activity against Marburg virus infected in human HeLa cells assessed as reduction in viral cytopathic effect; format: functional, organism-based; conditions: Orthomarburgvirus
Influenza A virus [14] = test: Antiviral activity against Influenza A virus infected in dog MDCK cells assessed as reduction in viral cytopathic effect; format: functional, organism-based
[15] = Selectivity index, ratio of CC50 for cytotoxicity against African green monkey Vero cells infected with DENV-2 assessed as reduction in cell viability by neutral red analysis to EC50 for antiviral activity against DENV-2 infected in human Huh-7 cells assessed as reduction in virus-induced cytopathic effect by neutral red analysis; format: toxicity, cell-based; conditions: read-out: Ratio CC50/EC50

Structure (SMILES): Nc1ncnn2c([C@@H]3N[C@H](CO)[C@@H](O)[C@H]3O)ccc12
- EC50 (Influenza A virus [1]): 420 nM
- EC50 (Influenza A virus [2]): 390 nM
- CC50 [3]: 12000 nM
- CC50 [4]: 12000 nM
- selectivity ratio [5]: 41
- selectivity ratio [6]: 38
- selectivity ratio [7]: 38
- selectivity ratio [8]: 64
- EC50 (La Crosse virus): < 100 nM
- EC50 (Oropouche virus): 390 nM
- EC50 (Pichinde virus): 380 nM
- EC50 (Tacaribe virus): 330 nM
- EC90 (Rift Valley fever virus): 97 nM
- EC90 (Heartland virus): 130 nM
- CC50 [9]: 8600 nM
- CC50 [10]: 9600 nM
- CC50 [11]: 24000 nM
- CC50 [12]: 11000 nM
- selectivity ratio [13]: 15

Structure (SMILES): Nc1ncnc2c([C@@H]3N[C@H](CO)[C@@H](O)[C@H]3O)c[nH]c12 [GALIDESIVIR]
- EC50 (Marburgvirus): 3000 nM
- EC50 (Influenza A virus [14]): 1000 nM
- selectivity ratio [15]: > 6.7
